# Source: patent US10421820B2, “Bruton's tyrosine kinase as anti-cancer drug target” (The Research Foundation for The State University of New York, priority 2008, dated 2019)
# Entries after “also recorded” stand apart in the source; their conditions may differ.
# Columns and labels:
# [1] = tested on: MCF-7 and MDA-MB-361 cell lines; experiment: 2-NBDG glucose uptake in breast cancer cell lines; format: cell-based, human; conditions: breast cancer cell lines that express BTK-C; LFM-A13 for 24 hours
# Experimental: (§1) FIG. 15A-15D. BTK-C promotes glucose uptake. […] Immunofluorescence pictures were taken in INCELL-1000; (15d) Fluorescence intensity was quantified in right. […] (15a) The effect of BTK-C on glucose uptake in breast cancer cell lines. MCF-7 and MDA-MB-361 cell lines were treated as in (15c). (15b) Fluorescence intensity shown at right panel, *p<0.01.
# [2] = tested on: MCF-10A cells over-expressing BTK-C; conditions: 35 μM LFM-A13 for 24
# BT474 cells [3] = experiment: Cleaved caspase-3 apoptosis assay in BT474 cells; format: cell-based, human
# Experimental: For high-throughput experiments, cells grown on 96-well plates were washed once with 1×PBS, fixed with 2.5% formaldehyde and stained with Hoechst 33342 (Molecular Probes-Invitrogen). Cell images were acquired using an In Cell Analyzer 1000 (GE Healthcare) high content imaging system, with a 20× objective. At least 50 fields were imaged per single experiment. Cell counts and statistics were then performed using the In Cell Investigator 3.4 high-content image analysis software (GE Healthcare). Apoptosis was detected by cleaved Caspase-3 after 48 h to 96 h of shRNA treatments. […] Control cells were treated with DMSO. For the cleaved caspase-3 assay, cells were fixed after treatment with 2.5% formaldehyde, washed with 1×PBS, permeabilized with 0.1% Triton-X 100 (Fisher Chemicals), blocked with 3% normal goat serum (Sigma-Aldrich), incubated with a 1:50-1:200 dilution of the primary antibody, washed with 1×PBS, incubated with a 1:800 dilution of the secondary antibody, washed again with 1×PBS and finally stained with Hoechst 33342 (Molecular Probes-Invitrogen). Cells were imaged by the In Cell Analyzer 1000 (GE Healthcare) or by a Leica TCS SP5 confocal microscope system (Leica Microsystems). At least 500 cells were counted for cleaved Caspase-3. […]
# 10A-BTK-C cells = experiment: 2-NBDG glucose uptake in MCF-10A cells over-expressing BTK-C; format: cell-based, human; conditions: LFM-A13 for 24 hours
# Experimental: as §1
# BTK-A and BTK-C proteins = experiment: BTK Tyr223 auto-phosphorylation, anti-Flag IP and Western blot in BT474 cells over-expressing BTK-A-flag or BTK-C-flag; format: cell-based, human
# [4] = tested on: SK-Br-3 Her2/neu positive breast cancer cells; experiment: SKBR3 cell number after 72 hours with or without EGF; format: cell-based, human; conditions: 50 ng/ml EGF
# [5] = tested on: HER2, AKT and ERK phosphorylation; experiment: Immunoblots of HER2, AKT and ERK phosphorylation in SKbr3 cells with or without EGF; format: cell-based, human; conditions: 1 μM, EGF 50 ng/ml, 3 hours
# SKBR3 xenograft = SKBR3 xenograft tumor growth in NOD/SCID mice (mammary fat pad injection); format: in vivo; conditions: 12 mg/kg, day 28, p<0.01
# MDA-MB-231 cells = experiment: MDA-MB-231 tail vein metastasis model in NOD/SCID mice; format: in vivo; conditions: 12 mg/kg per day, oral
# Experimental: FIG. 24A-24D. […] (24A) 10^6 MDA-MB-231 cells in 100 μl PBS were injected into the tail vein of 4-5 week old female NOD/SCID mice (Jackson Labs). Injected animals were randomly assigned to control or experimental groups. Starting at time of tail vein injection, mice were treated with vehicle or ibrutinib (12 mg/kg per day, oral). At end point, mice were euthanized and bones and organs collected for histological analysis. Note that all bone metastases in control groups led to the development of paralysis (5/16, n=16 per group). […] Thin section of a tumor arising in an untreated control animal.
# More specifically, 10^6 MDA-MB-231 (Her2-) cells in 100 μl PBS were injected into the tail vein of 4-5 week old female NOD/SCID mice (Jackson Labs). Injected animals were randomly assigned to control or experimental groups. Starting at time of tail vein injection, mice were treated with vehicle or ibrutinib (12 mg/kg per day, oral). At end point, mice were euthanized then bones and organs collected for histological analysis. Note that bone metastases in control groups led to the development of paralysis (5/16, n=16 per group).
# BTK-C-flag protein = BTK-C-flag protein knockdown by immunoblot in HEK 293T cells with BTK-C specific siRNAs; format: cell-based, human; conditions: transfected HEK 293T cells
# Experimental: (§2) FIG. 12A-12D. The BTK-C gene produces an 80 kD product. (12a) A schematic representation showing the domains of the BTK-A and predicted BTK-C protein. (12b) Total lysate from breast lines and Namalwa B-cells subjected to immunoblotting and probed with an anti-BTK antibody (BD Transduction Laboratory, 611116). (12c) HEK293 cells co-transfected with a BTK-C flag vector and either BTK-C siRNAs or Non-Target siRNA. Total lysate was prepared 96 hrs post transfection and was used for immunoblotting with anti-Flag antibody. (12d) BT474 cells were transfected with two BTK-C specific siRNAs, non-target siRNA as a control and co-transfected with GFP to mark transfected cells. Transfected cells were counted at 24 h and 96 h and the 96 hr to 24 hr ratio was calculated and expressed as % of the control.
# BT474 cells [6] = experiment: BT474 viability after BTK-C specific siRNAs (GFP-marked cell counts, 96 h to 24 h ratio); format: cell-based, human
# Experimental: as §2
# [7] = tested on: HER2+ breast cancer cells; experiment: Growth factor-driven lapatinib resistance in HER2+ breast cancer cells (NRG, EGF); format: cell-based, human
molecule,measurement,setting,value
C/C(O)=C(\C#N)C(=O)Nc1cc(Br)ccc1Br [LFM-A13],glucose uptake (2-NBDG fluorescence),[1],inhibits glucose uptake
same,acquired resistance to Doxorubicin (1 μM),[2],abolishes the acquired resistance to Doxorubicin
same,increase of apoptosis levels compared to control,"BT474 cells [3]; 25 uM LFM-A13, BT474 cells",8%
same,increase of apoptosis levels compared to control,"BT474 cells [3]; 35 μM LFM-A13, BT474 cells, 48 h",six fold
same,glucose uptake (2-NBDG fluorescence),10A-BTK-C cells,inhibited
same,phosphorylation of both the BTK-A and BTK-C proteins,BTK-A and BTK-C proteins; 35 μM LFM-A13 for 48 h,significantly impedes phosphorylation
same,phosphorylation of BTK-A and BTK-C proteins (pY223),BTK-A and BTK-C proteins; 100 μM LFM-A13 for 45 mins,severely impeded phosphorylation; also recorded: reduces phosphorylation of BTK
CS(=O)(=O)CCNCc1ccc(-c2ccc3ncnc(Nc4ccc(OCc5cccc(F)c5)c(Cl)c4)c3c2)o1 [Lapatinib],effect of EGF treatment on drug activity (cell number),[4],EGF treatment counteracts lapatinib to a much larger degree than PCI-32765
same,ERK activation in the presence of EGF,[5],"EGF counteracts lapatinib's effect, causing ERK re-activation"
C=CC(=O)N1CCC[C@@H](n2nc(-c3ccc(Oc4ccccc4)cc3)c3c(N)ncnc32)C1 [Ibrutinib],tumor volumes smaller than vehicle control,SKBR3 xenograft,45%
same,decrease of non-lung metastases,MDA-MB-231 cells,3 fold
"siRNA2: BTK-C specific siRNA, sense SEQ ID NO: 68, antisense SEQ ID NO: 69 (sense CAACAAAUGGUUAUUGGAUUU; antisense AUCCAAUAACCAUUUGUUGUU; chemistry not given here; listed as Homo sapiens)",BTK-C-flag protein expression,BTK-C-flag protein,reduce BTK-C-flag protein expression
same,viability of BT474 cells,BT474 cells [6],decrease the viability
C=CC(=O)Nc1cccc(Nc2nc(Nc3ccc(OCCOC)cc3)ncc2F)c1 [AVL-292],EGFR family activation,[7],has no effect on EGFR family activation
same,NRG- and EGF-dependent growth factor-driven resistance to lapatinib,[7],prevents NRG- and EGF-dependent growth factor-driven resistance to lapatinib
